Test results reported in patent publication US7790738B2, “Methods of treating and preventing AIDS using of COX-2 inhibitors” (Lauras AS, priority 2000, dated 2010).
Where “and” joins values, the source holds several entries; their conditions need not be identical. Equal entries are not always repeated. Where two headings read alike, the source gives them in different places. Marks after values point to notes of the source that are not given here.

Tests used:
[1] = biological target: T1, COX-2 (Homo sapiens, UniProt P35354); conditions: cited from earlier work; for COX-2 selectivity COX-1/COX-2: ratio of IC50, recombinant human enzymes; for IC50: recombinant human PGH synthesis, Laneuvill et al. 1994, read-out: COX-2 IC50
T1 sequence (P35354 18-604): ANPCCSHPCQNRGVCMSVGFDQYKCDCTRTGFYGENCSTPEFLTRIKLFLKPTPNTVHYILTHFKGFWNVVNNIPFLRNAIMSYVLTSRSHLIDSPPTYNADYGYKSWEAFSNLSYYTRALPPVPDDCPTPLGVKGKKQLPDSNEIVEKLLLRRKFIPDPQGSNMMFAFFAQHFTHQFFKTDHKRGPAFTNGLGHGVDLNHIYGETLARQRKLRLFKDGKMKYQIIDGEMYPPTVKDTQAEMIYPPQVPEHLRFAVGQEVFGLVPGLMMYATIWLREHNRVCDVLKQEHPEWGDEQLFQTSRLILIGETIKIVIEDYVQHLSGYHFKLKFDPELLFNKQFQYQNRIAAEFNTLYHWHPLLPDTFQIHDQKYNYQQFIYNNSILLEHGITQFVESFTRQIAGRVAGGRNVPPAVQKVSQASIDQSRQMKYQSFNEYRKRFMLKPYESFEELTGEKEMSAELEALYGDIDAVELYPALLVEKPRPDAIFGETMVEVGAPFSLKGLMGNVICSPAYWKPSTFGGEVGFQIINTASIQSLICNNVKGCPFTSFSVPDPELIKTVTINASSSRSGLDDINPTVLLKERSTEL

[2] = biological target: COX-1 (Homo sapiens, UniProt P23219); conditions: recombinant human PGH synthesis; Laneuvill et al. 1994; cited from earlier work
Sequence of COX-1 (Homo sapiens, UniProt P23219) (P23219 24-599): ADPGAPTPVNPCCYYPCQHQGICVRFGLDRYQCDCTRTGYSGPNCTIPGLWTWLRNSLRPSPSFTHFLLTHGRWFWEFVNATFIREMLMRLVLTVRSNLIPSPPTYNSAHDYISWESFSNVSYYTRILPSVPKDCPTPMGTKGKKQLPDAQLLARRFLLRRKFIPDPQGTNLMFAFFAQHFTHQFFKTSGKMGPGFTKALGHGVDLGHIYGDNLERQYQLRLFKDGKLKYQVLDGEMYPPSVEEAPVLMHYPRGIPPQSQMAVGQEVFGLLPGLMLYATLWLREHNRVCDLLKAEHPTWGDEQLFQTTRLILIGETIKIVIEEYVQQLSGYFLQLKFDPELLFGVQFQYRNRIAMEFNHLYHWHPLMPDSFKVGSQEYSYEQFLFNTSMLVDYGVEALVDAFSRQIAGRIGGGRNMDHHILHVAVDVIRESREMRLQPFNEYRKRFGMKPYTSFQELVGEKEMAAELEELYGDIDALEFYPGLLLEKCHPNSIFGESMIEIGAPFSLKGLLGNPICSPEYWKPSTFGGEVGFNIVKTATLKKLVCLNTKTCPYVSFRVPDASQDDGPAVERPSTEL

[3] = tested on: MAIDS mice; test: in vivo treatment of MAIDS mice, anti-CD3 induced T cell proliferation assessed in lymph node cells; parameters: species or system mouse; conditions: for increase of T cell responses to anti-CD3 versus untreated mice: intraperitoneal in intralipid, 18 to 20 days, rofecoxib 3, celecoxib 20 mg/kg/day
Procedure: Subsequently, T cell proliferative responses were assessed in vitro in a mixed population of unsorted lymph node mononuclear cells from treated and untreated animals by [^3H]-thymidine incorporation in the absence (columns A) and presence of Rp-8-Br-cAMPS (0.5 or 1.0 mM, columns B and C, respectively). T cell activation was accomplished in all samples by cross-ligation of anti-CD3 (mAb 2C11; 4 μg/ml). Control represents T cell proliferation in uninfected mice. Mean values from triplicate determinations are shown. Cells were cultured for 72 h during which [^3H]-thymidine was included for the last 4 hours;
Subsequently, T cell proliferative responses were assessed in vitro as described for FIG. 16 but without Rp-Br-cAMPs. Control represents T cell proliferation in uninfected mice. Mean values from triplicate determinations are shown (black circles) along with 25 to 75% percentile (boxed areas) and median (line in box). Bars represent range; and
Mean values±standard error of the mean (s.e.m.) from each group are shown. […] Statistics were analysed by Mann-Whitney U test for comparison of two groups of animals and with Wilcoxon Matched Pairs Test for comparison of the same group with two different treatments.
MAIDS mice normally develop an immunoproliferation syndrome with enlarged lymph nodes and spleen.
Parenteral administration was accomplished by intraperitoneally injecting Cox-2 inhibitors formulated in intralipid.

[4] = biological target: COX-1 (Cavia porcellus, UniProt H0V9X9); conditions: read-out: COX-1 IC50; guinea pig macrophage model; Engelhart et al. 1995; cited from earlier work
Sequence of COX-1 (Cavia porcellus, UniProt H0V9X9) (H0V9X9 entry or part of it): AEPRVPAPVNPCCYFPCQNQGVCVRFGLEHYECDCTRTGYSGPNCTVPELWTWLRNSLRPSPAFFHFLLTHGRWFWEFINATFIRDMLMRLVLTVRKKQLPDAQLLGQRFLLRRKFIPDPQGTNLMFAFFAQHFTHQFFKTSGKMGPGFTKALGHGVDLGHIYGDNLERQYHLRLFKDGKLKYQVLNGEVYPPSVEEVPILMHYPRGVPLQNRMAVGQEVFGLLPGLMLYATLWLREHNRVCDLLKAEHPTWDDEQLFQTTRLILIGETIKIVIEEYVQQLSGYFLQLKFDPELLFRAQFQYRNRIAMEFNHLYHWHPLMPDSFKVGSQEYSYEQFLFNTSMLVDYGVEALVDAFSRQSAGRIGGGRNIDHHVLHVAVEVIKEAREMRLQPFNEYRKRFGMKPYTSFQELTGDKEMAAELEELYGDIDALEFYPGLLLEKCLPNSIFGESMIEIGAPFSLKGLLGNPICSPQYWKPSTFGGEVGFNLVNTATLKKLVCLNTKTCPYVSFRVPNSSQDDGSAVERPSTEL

[5] = biological target: T1, COX-2; conditions: cited from earlier work
[6] = tested on: CD3+ T cells from MAIDS and control mice; test: TCR/CD3 stimulated proliferation of isolated T cells, [3H]-thymidine incorporation; format: cell-based, mouse
Procedure: TCR/CD3 stimulated T cell proliferation was assessed with isolated T cells from MAIDS mice (A) and uninfected control mice (B). The effect of increasing concentrations of cAMP agonist (8-CPT-cAMP) on TCR/CD3 stimulated proliferation of CD3+ T cells isolated from MAIDS (open circles, dotted line) and control mice (filled circles and solid line) was examined separately in the same experiments (C). Mean values of triplicate determinations±SD are shown. See Table 4 for summarised data (n=11). Note: Scaling differs in A and B, whereas in C the TCR/CD3 induced proliferation in the absence of cAMP agonist is normalized to 100% for both MAIDS and control T cells;
Activation was achieved by subsequent addition of monodisperse magnetic beads coated with sheep anti-mouse IgG (Dynal, cat. no. 110.02) at a cell:bead ratio of 1:1 followed by addition of anti-CD3 (clone 2C11) at a final dilution of 4 μg/ml for the experiments shown. […] 8-CPT-cAMP was from Sigma (St. Louis, Mo.) and Sp- and Rp-8-Br-cAMPS were from BioLog Life Science Company (Bremen, Germany) and were all dissolved to concentrations of 4 to 10 mM in PBS and concentrations calculated using the extinction coefficients given by the manufacturer.

[7] = tested on: lymph node mononuclear cells from MAIDS and control mice; test: anti-CD3 induced T cell proliferation in mixed unsorted lymph node cells, compound added in vitro; format: cell-based, mouse
Procedure: T cell activation was accomplished by cross-ligation of anti-CD3 (mAb 2C11; 4 μg/ml). […] Cells were cultured for 72 h during which [^3H] -thymidine was included for the last 4 h;
T cell activation was accomplished by cross-ligation of anti-CD3 (mAb 2C11; 4 μg/ml). […] Cells were cultured for 72 h during which [^3H ]-thymidine was included for the last 4 h;
The optimal concentration of antibody was titrated carefully in the initial setup and parallel experiments at several different dilutions of antibody was always performed. Proliferation was analyzed by incubating cells for 72 hours during which [^3H]-thymidine (0.4 μCi) was included for the last 4 hours and collected with a cell harvester (Skatron, Sterling, Va., USA) onto glass fiber filters. Incorporated precursor was counted in a scintillation analyzer (Tri-Carb, Packard, Meriden, Conn., USA). cAMP analogs, when used, were added 30 min prior to activation by addition of anti-CD3 antibodies.

[8] = tested on: CD3+ T cells from HIV infected patients; test: proliferation of HIV patient CD3+ T cells with cAMP antagonist added in vitro; format: cell-based, human
Excerpt: Bars show mean values±SD from triplicate determinations.
8-CPT-cAMP was from Sigma (St. Louis, Mo.).

[9] = tested on: MAIDS mice; test: in vivo treatment of MAIDS mice, lymphoproliferation (spleen and lymph node weight); parameters: species or system mouse; conditions: MAIDS mice 17 weeks post-infection, per os 7 days, 3 mg/kg/day
[10] = tested on: HIV infected patients; test: phase II clinical trial, indomethacin in vivo, T cell proliferation after activation; conditions: for T cell immune function, patients responding: 7 patients
Procedure: T cell activation was accomplished by cross-ligation of anti-CD3 (mAb SpVT3b). […] Bars show mean values±SD from triplicate determinations. Cells were cultured for 72 h during which [^3H]-thymidine was included for the last 16 h;
Mean values from triplicate determinations are plotted, connector lines show development of each patient;
Peripheral blood CD3+ T cells were purified by negative selection from buffycoats from normal healthy donors (Ullevaal University Hospital Blood Center, Oslo, Norway). Briefly, peripheral blood mononuclear cells were isolated by density gradient (Lymphoprep, NycoMed, Oslo, Norway) centrifugation followed by negative selection using monodisperse magnetic beads directly coated with antibodies to CD14 and CD19 and rat anti-mouse IgG beads coated with antibodies to CD56 and a magnet. […] All steps were performed at 4° C.
Proliferation assays were performed by incubation of 0.75×10^6 CD3+ T cells/ml in a 100 μl volume in flat-bottom 96-well microtiter plates. […] The optimal concentration of antibody was titrated carefully in the initial setup and parallel experiments at several different dilutions of antibody were always performed. Proliferation was analyzed by incubating cells for 72 hours during which [^3H]-thymidine was included for the last 16 hours. Cells were washed and harvested onto glass filters and subsequently analyzed by β-scintillation counting. CAMP analogs, when used, were added 30 min prior to activation by addition of anti-CD3 antibodies. 8-CPT-cAMP was from Sigma (St. Louis, Mo.).

In the case of `COc1ccc2cc(CC(=O)O)ccc2c1` [6-MNA], the “COX-2 selectivity COX-1/COX-2” value [1] is listed as 0.7, the IC50 [1] is listed as 93.5 µM and the IC50 [2] is listed as 64 µM.
For `Cc1cnc(NC(=O)C2=C(O)c3ccccc3S(=O)(=O)N2C)s1` [Meloxicam, 4-hydroxy-2-methyl-N-(5-methyl-2-thiazolyl)-1,1-dioxide-2H-1,2-benzothiazine-3-carboxamide], the “increase of T cell immune responses to anti-CD3 versus PBS-treated infected mice” value ([3]; 2.8 mg/kg/day, subcutaneous osmotic pump, 14 days, p<0.05) is given as “more than 10 fold” and the IC50 [4] is given as 0.00577 µM.
In the case of `Cc1ccc(Cl)c(Nc2ccccc2C(=O)O)c1Cl` [Meclofenemate], the “COX-2 selectivity COX-1/COX-2” value [1] is given as 0.15, the IC50 [1] is given as 9.7 µM and the IC50 [2] is given as 1.5 µM.
For `CS(=O)(=O)Nc1cc2c(cc1Sc1ccc(F)cc1F)C(=O)CC2` [L-745337], the “Ratio COX-2/WHMA-COX-1 at IC80” value ([5]; WHMA test, Warner et al.) is given as under 0.01.
For `CC/C=C\C/C=C\C/C=C\C/C=C\C/C=C\C/C=C\CCC(=O)O` [DHA (22:6)], the “COX-2 selectivity COX-1/COX-2” value [1] is listed as 0.6, the IC50 [1] is listed as 41 µM and the IC50 [2] is listed as 25.6 µM.
In the case of `CS(=O)(=O)Nc1ccc([N+](=O)[O-])cc1Oc1ccccc1` [nimesulide], the “Ratio COX-2/WHMA-COX-1 at IC80” value [5] is given as 0.17.
In the case of `Nc1ncnc2c1nc(Br)n2C1OC2COP(O)(=S)OC2C1O` (centres unmarked) [Rp-8-Br-cAMPS, Rp-8-Bromo-cAMP-phosphorothioate], the “increase in TCR/CD3-induced proliferation” value ([6]; MAIDS T cells, higher concentrations, FIG. 5A) is reported as “more than 4 fold”, the “Increase in proliferation by Rp-8-Br-cAMPS” value (“Increase … by Rp-8-Br-cAMPS” for short) ([6]; MAIDS mice, median, n = 11) is reported as 2.2 fold increase and the “effect on TCR/CD3-induced proliferation” value ([6]; control T cells, FIG. 5B) is reported as “no stimulation was observed”. The “Increase … by Rp-8-Br-cAMPS” value ([6]; control mice, median, n = 6) was 1.1 fold increase, the “Increase … by Rp-8-Br-cAMPS” value ([6]; individual MAIDS mice 1-11, anti-CD3 induced proliferation) was 14 fold increase and 37 fold increase (3×) and 10 fold increase and 19 fold increase (2×) and 22 fold increase and 42 fold increase and 40 fold increase and 24 fold increase and the “effect on anti-CD3 stimulated mixed lymph node cultures” value ([7]; MAIDS mice that received PBS in vivo, 0.5 mM) was “increased immune responses”. For the same compound, the “effect on proliferation by antagonist in vitro” value ([8]; patient 2, 1 mM) was “no effect” and the “increase in proliferation by antagonist in vitro” value ([8]; patients 1 and 3, all time points, 1 mM) was “approx. 2 fold”.
For `O=C(c1ccccc1)c1ccc2n1CCC2C(=O)O` (centres unmarked) [Ketorolac tromethamine], the “COX-2 selectivity COX-1/COX-2” value [1] is given as 0.5 and the IC50 [2] is given as 31.5 µM.
In the case of `CS(=O)(=O)c1ccc(C2=C(c3ccccc3)C(=O)OC2)cc1` [rofecoxib], the “increase of anti-CD3 induced proliferation” value ([7]; cells from MAIDS mice 17 weeks post-infection, concentration-dependent, 1.9 to 500 nM) is reported as “two- to three-fold”, the “Rp-8-Br-cAMPS effect on anti-CD3 induced proliferation after in vivo treatment” value ([3]; MAIDS mice treated per os one week) is reported as “lost” and the “increase of T cell responses to anti-CD3 versus untreated mice” value [3] is reported as “approximately two-fold”. The average spleen weight [9] was 0.8 g and the “average weight of pooled lymph nodes” value [9] was 0.3 g.
For `O=C(O)c1ccccc1O` [Salicyclic acid], the IC50 [1] is given as over 1000 µM and the IC50 [2] is given as over 1000 µM.
In the case of `COc1ccc2c(c1)c(CC(=O)O)c(C)n2C(=O)c1ccc(Cl)cc1` [Indomethacin], the “T cell proliferation, Indomethacin” value ([7]; MAIDS mice, median, n = 7, no anti-CD3) is reported as 1412, the “T cell proliferation, Indomethacin/Anti-CD3” value ([7]; MAIDS mice, median, n = 8, anti-CD3 plus indomethacin) is reported as 15601** and the “effect on anti-CD3 induced proliferation” value ([7]; control cultures of uninfected mice, indomethacin) is reported as “did not alter proliferation”. The “T cell proliferation, Indomethacin/Anti-CD3” value ([7]; individual MAIDS mice, anti-CD3 plus indomethacin 50 ng/ml) was 19624 and 31830 and 42244 and 9381 and 47926 and 1345 and 11579 and 8545, the “T cell proliferation, Indomethacin” value ([7]; individual MAIDS mice, no anti-CD3, indomethacin 50 ng/ml) was 2363 and 7316 and 1412 and 1129 and 265 and 335 and 4317 and the “effect on anti-CD3 induced proliferation” value ([7]; mixed lymph node cells of five MAIDS-infected mice, 72 h) was “strongly increased the proliferation of cells from five MAIDS-infected mice to levels comparable to that of control mice”. For the same compound, the “T cell immune function, patients responding” value ([10]; after 14 days of treatment, 25 mg three times a day) was “two of seven patients had clearly elevated T cell immune function”, the “T cell immune function, patients responding” value ([10]; two weeks after discontinuation, versus day 0) was “five of seven patients had elevated immune responsiveness” and the adverse events ([10]; HIV patients, 50 mg 3 times a day) was “epigastrial pain and dyspepsia”. For the same compound, the “increase of T cell responses after in vivo treatment” value ([10]; patient 3, 25 mg three times a day perorally, 14 days, persisted to day 28) was “approximately 2.5 fold”, the “T cell immune function after in vivo treatment” value ([10]; patients 1 and 2, 25 mg three times a day perorally, 14 days) was “did not increase their immune function” and the IC50 [4] was 0.00021 µM.
In the case of `Cc1ccc(-c2cc(C(F)(F)F)nn2-c2ccc(S(N)(=O)=O)cc2)cc1` [celecoxib, 4-(5-(4-methylphenyl)-3-(trifluoromethyl)-1H-pyrazol-1-yl)-benzenesulfonamide], the EC50 ([7]; Mus musculus, T-cell, read-out: concentration producing half-maximal effect (ED50) on T cell proliferation) is reported as about 0.03 µM and the “increase of T cell responses to anti-CD3 versus untreated mice” value [3] is reported as “approximately 3 fold”.
